Measurements as given in patent US9926275B2 (priority 2013, dated 2018).
Read-outs that look alike come from different tables or passages of the source.

Legend:
CB1 receptor [1] = molecular target: T1, CB1 receptor (Homo sapiens, UniProt P21554); assay: DiscoveRx HitHunter cAMP XS+ assay in cAMP Hunter cell line, allosteric modulation of CP55,940 response; format: cell-based; details: for Emax: read-out: cAMP activity ECMax (%)
Experimental: Once it was established that the cells were healthy and growing normally, cells were passaged from flasks using cell dissociation reagent buffer and seeded into white walled clear bottom 384-well microplates for compound profiling. For profiling, cells were seeded at a density of 10000 cells per well in a total volume of 20 μL and were allowed to adhere and recover overnight prior to compound addition. Cells were treated the following day using the protocols shown below. cAMP modulation was determined using the DiscoveRx HitHunter cAMP XS+ assay.
Media was aspirated from cells and replaced with 10 μL 1:1 HBSS/Hepes: cAMP XS+ Ab reagent. Agonist (CP55,940) dose curves were performed to determine the EC20 value for the testing with the compounds of the present technology. 5 μL of 4× agonist was added to each well with an equal concentration of vehicle present. EC20 agonist concentration was determined directly from agonist dose curve.
(§1) For allosteric determination, cells were preincubated with compound followed by agonist challenge at the EC20 concentration of the agonist. 5 μL of 4× compound was added to cells and incubated at 37° C. for 30 minutes. 5 μL of 4× EC20 agonist was added to cells and incubated at 37° C. for 30 minutes.
Signal Detection: After appropriate compound incubation, assay signal was generated through incubation with 20 μL cAMP XS+ED/CL lysis cocktail for one hour followed by incubation with 20 μL cAMP XS+EA reagent for three hours at room temperature. Microplates were read following signal generation with a PerkinElmer Envision™ instrument for chemiluminescent signal detection.
(§2) Data Analysis: Dose curves were plotted using GraphPad Prism or Activity Base. The percentage activity is calculated using the following formula: % Activity=100%×(1−(mean RLU of test sample−mean RLU of MAX control)/(mean RLU of vehicle control [EC20 for PAM]−mean RLU of MAXcontrol).
(§3) Agonist (CP55,940) dose curves were performed for the CNR1 PathHunter and cAMP Hunter cell lines. […] The cAMP assay was performed in the presence of 20 μM forskolin (EC80).
(§4) In Vitro Evaluation: The in vitro evaluation of the covalent allosteric modulators was performed using as described previously.

CB1 receptor [2] = molecular target: T1, CB1 receptor; assay: β-arrestin recruitment in CNR1 PathHunter cell line, allosteric modulation of CP55,940 response; format: cell-based; details: for Emax: read-out: β-arrestin activity EMax (%)
Experimental: as §1, §2, §3, §4

[3] = Table 1, preincubation with compound, then CP55,940 challenge, 20 μM forskolin
[4] = Table 1, preincubation with compound, then CP55,940 challenge, 20 μM forskolin, read-out: cAMP EC50
[5] = Table 1, CP55,940 as agonist, read-out: β-arrestin EC50
[6] = Table 2, covalent allosteric modulators, read-out: cAMP activity EC50 (nm)
[7] = Table 2, covalent allosteric modulators
[8] = Table 2, covalent allosteric modulators, read-out: β-arrestin activity EC50 (nm)

T1 sequence (P21554 whole entry): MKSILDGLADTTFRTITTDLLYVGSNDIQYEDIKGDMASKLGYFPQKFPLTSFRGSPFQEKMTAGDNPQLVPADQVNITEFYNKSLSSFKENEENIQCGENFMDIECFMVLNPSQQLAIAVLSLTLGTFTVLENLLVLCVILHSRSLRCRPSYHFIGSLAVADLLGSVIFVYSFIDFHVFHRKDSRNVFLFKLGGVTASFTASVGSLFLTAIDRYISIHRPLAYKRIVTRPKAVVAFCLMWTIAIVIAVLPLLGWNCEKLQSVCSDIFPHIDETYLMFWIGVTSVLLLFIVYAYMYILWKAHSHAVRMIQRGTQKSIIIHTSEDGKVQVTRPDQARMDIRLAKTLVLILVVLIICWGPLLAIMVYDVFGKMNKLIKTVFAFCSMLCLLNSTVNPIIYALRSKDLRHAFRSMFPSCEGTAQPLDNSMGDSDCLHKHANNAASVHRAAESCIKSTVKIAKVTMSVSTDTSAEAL

SMILES | cAMP % inhibition (CB1 receptor [1]; [3]) [%] | EC50 (CB1 receptor [1]; [4]) [nM] | β-arrestin % inhibition (CB1 receptor [2]; Table 1, CP55,940 as agonist) [%] | EC50 (CB1 receptor [2]; [5]) [nM] | further results
O=C(Nc1cccc(-c2cccc(N3CCCC3)n2)c1)Nc1ccc(Cl)c(CCCCO)c1 [Compound 24b, 1-(4-Chloro-3-(4-hydroxybutyl)phenyl)-3-(3-(6-(pyrrolidin-1-yl)pyridin-2-yl)phenyl)urea] | 111 | 1420 | 125 | 1350 | 
O=C(Nc1cccc(-c2cccc(N3CCCC3)n2)c1)Nc1ccccc1Oc1ccccc1 [Compound 10m, 1-(2-Phenoxyphenyl)-3-(3-(6-(pyrrolidin-1-yl)pyridin-2-yl)phenyl)urea] | 18 | > 10000 | 80 | 795 | 
O=C(Nc1ccc(Cl)cc1)Nc1ccc(-c2cccc(N3CCCC3)n2)cc1 [Compound 51, 1-(4-Chlorophenyl)-3-(4-(6-(pyrrolidin-1-yl)pyridin-2-yl)phenyl)urea] | 11 | > 10000 | 109 | 206 | 
CCc1c(C(=O)NCCc2ccc(N3CCCCC3)cc2)[nH]c2ccc(N=[N+]=[N-])cc12 [GAT206] |  |  |  |  | EC50 (CB1 receptor [1]; [6]): 391 nM; Emax (CB1 receptor [1]; [7]): 89%; EC50 (CB1 receptor [2]; [8]): 28 nM; Emax (CB1 receptor [2]; [7]): 106%
O=C(Nc1cccc(-c2cccc(N3CCCC3)n2)c1)Nc1ccccc1C(=O)O [Compound 16, 2-(3-(3-(6-(Pyrrolidin-1-yl)pyridin-2-yl)phenyl)ureido)benzoic acid] | 35 | > 10000 | 1.5 | > 10000 | 
O=C(Nc1cccc(-c2cccc(N3CCCC3)n2)c1)Oc1ccc(Cl)cc1 [Compound 13b, 4-Chlorophenyl (3-(6-(pyrrolidin-1-yl)pyridin-2-yl)phenyl)carbamate] | 3.5 | > 10000 | 24 | 5370 | 
Cc1ccc(NC(=O)Nc2cccc(-c3cccc(N4CCCC4)n3)c2)cc1 [Compound 10n, 1-(3-(6-(Pyrrolidin-1-yl)pyridin-2-yl)phenyl)-3-(p-tolyl)urea] |  |  |  |  | cAMP % inhibition (CB1 receptor [1]): 122%; EC50 (CB1 receptor [1]; cAMP EC50 nM): 764 nM; β-arrestin % inhibition (CB1 receptor [2]): 127%; EC50 (CB1 receptor [2]; β-arrestin EC50 nM): 119 nM
O=C(Nc1cccc(-c2cccc(N3CCCC3)n2)c1)Nc1ccc(Cl)c(CCCCOC2CCCCO2)c1 (stereo not shown) [Compound 23b, 1-(4-Chloro-3-(4-((tetrahydro-2H-pyran-2-yl)oxy)butyl)phenyl)-3-(3-(6-(pyrrolidin-1-yl)pyridin-2-yl)phenyl)urea] | 55 | 354 | 121 | 771 | 
O=C(Nc1cccc(-c2cccc(N3CCCC3)n2)c1)Nc1ccccc1Cl [Compound 10d, 1-(2-Chlorophenyl)-3-(3-(6-(pyrrolidin-1-yl)pyridin-2-yl)phenyl)urea] | 39 | > 10000 | 105 | 2170 | 
O=C(Nc1cccc(-c2cccc(N3CCCC3)n2)c1)Nc1ccc2ccccc2c1 [Compound 10x, 1-(Naphthalen-2-yl)-3-(3-(6-(pyrrolidin-1-yl)pyridin-2-yl)phenyl)urea] | 68 | 1830 | 119 | 1910 | 
O=C(Nc1ccc(Cl)cc1)Nc1cccc(-c2cccc(N3CCOCC3)n2)c1 [Compound 67a, 1-(4-Chlorophenyl)-3-(3-(6-morpholinopyridin-2-yl)phenyl)urea] | 88 | 564 | 111 | 124 | 
O=C(Nc1cccc(Oc2ccccc2)c1)Nc1cccc(-c2cccc(N3CCCC3)n2)c1 [Compound 10l, 1-(3-Phenoxyphenyl)-3-(3-(6-(pyrrolidin-1-yl)pyridin-2-yl)phenyl)urea] | 57 | 2240 | 117 | 86 | 
O=C(Nc1ccc(I)cc1)Nc1cccc(-c2cccc(N3CCCC3)n2)c1 [GAT205] |  |  |  |  | EC50 (CB1 receptor [1]; [6]): 253 nM; Emax (CB1 receptor [1]; [7]): 102%; EC50 (CB1 receptor [2]; [8]): 11.5 nM; Emax (CB1 receptor [2]; [7]): 105%
O=C(Nc1cccc(-c2cccc(N3CCCC3)n2)c1)NC1CCCCC1 [Compound 10z, 1-Cyclohexyl-3-(3-(6-(pyrrolidin-1-yl)pyridin-2-yl)phenyl)urea] | 78 | 659 | 136 | 333 ± 30 | 
O=C(Nc1cccc(-c2cccc(N3CCCC3)n2)c1)Nc1ccc(Cl)c(C#CCCOC2CCCCO2)c1 (stereo not shown) [Compound 21b, 1-(4-Chloro-3-(4-((tetrahydro-2H-pyran-2-yl)oxy)but-1-yn-1-yl)phenyl)-3-(3-(6-(pyrrolidin-1-yl)pyridin-2-yl)phenyl)urea] | 22 | > 10000 | 111 | 208 | 
Clc1ccc(-c2nnc(Nc3cccc(-c4cccc(N5CCCC5)n4)c3)o2)cc1 [Compound 45, 5-(4-Chlorophenyl)-N-(3-(6-(pyrrolidin-1-yl)pyridin-2-yl)phenyl)-1,3,4-oxadiazol-2-amine] | 20 | 4050 | 70 | 3210 | 
O=C(Nc1cccc(-c2cccc(N3CCCC3)n2)c1)Nc1ccc(Cl)cc1I [Compound 19a, 1-(4-Chloro-2-iodophenyl)-3-(3-(6-(pyrrolidin-1-yl)pyridin-2-yl)phenyl)urea] | 53 | 1270 | 118 | 1200 | 
CN(C(=O)N(C)c1cccc(-c2cccc(N3CCCC3)n2)c1)c1ccc(Cl)cc1 [Compound 28, 1-(4-Chlorophenyl)-1,3-dimethyl-3-(3-(6-(pyrrolidin-1-yl)pyridin-2-yl)phenyl)urea] | 39 | 1670 | 62 | 2330 | 
O=C(Nc1cccc(-c2cccc(N3CCCC3)n2)c1)Nc1ccccc1C(F)(F)F [Compound 10g, 1-(3-(6-(Pyrrolidin-1-yl)pyridin-2-yl)phenyl)-3-(2-(trifluoromethyl)phenyl)urea] | 119 | 1160 | 123 | 2090 | 
CN(C(=O)Nc1cccc(-c2cccc(N3CCCC3)n2)c1)c1ccc(Cl)cc1 [Compound 13a, 1-(4-Chlorophenyl)-1-methyl-3-(3-(6-(pyrrolidin-1-yl)pyridin-2-yl)phenyl)urea] | 17 | 1640 | 99 | 1020 | 
Cc1cc(Cl)ccc1OC(=O)Nc1cccc(-c2cccc(N3CCCC3)n2)c1 [Compound 13c, 4-Chloro-2-methylphenyl (3-(6-(pyrrolidin-1-yl)pyridin-2-yl)phenyl)carbamate] | 24 | 3050 | 39 | 3070 | 
O=C(Nc1cccc(-c2cccc(N3CCCC3)n2)c1)Nc1ccc(Cl)cc1C#CCCOC1CCCCO1 (stereo not shown) [Compound 21a, 1-(4-Chloro-2-(4-((tetrahydro-2H-pyran-2-yl)oxy)but-1-yn-1-yl)phenyl)-3-(3-(6-(pyrrolidin-1-yl)pyridin-2-yl)phenyl)urea] | 9 | > 10000 | 73 | 3400 | 
